Test results from patent publication US20100035823A1, “LIGANDS OF SH3 DOMAINS” (ALBERT EINSTEIN COLLEGE OF MEDICINE OF YESHIVA UNIVERSITY, priority 2005, published 2010).
Read-outs that look alike come from different tables or passages of the source. Where a SMILES comes first, the peptide text is derived from it. [ ]: non-standard residue; d: D form. The star is where a group is joined. FITC = O=C1OC2(c3ccc(O)cc3Oc3cc(O)ccc32)c2ccc(NC(=S)*)cc21; Benzoyl(2,3-diOH) = O=C(c1cccc(O)c1O)*; Nicotinoyl(2-OH) = O=C(c1cccnc1O)*; Nspe = C[C@H](NCC(=O)O)c1ccccc1; X1 = O=C([C@H](O)c1ccccc1)*; Dap = NC[C@H](N)C(=O)O; Ahx = NCCCCCC(=O)O

Experiments:
Format in all cases: binding
[1] = target: T1, Fyn SH3 domain (Fyn SH3-GST fusion protein) (Homo sapiens, UniProt P06241); assay: Determination of Kd values by equilibrium dialysis (fluorescence), Fyn SH3 domain; details: for Kd: Fyn SH3 domain; for Selectivity among Src family SH3 domains (in words): Fyn versus other Src kinase family SH3 domains; for Enhancement in Fyn SH3 affinity relative to parent peptide 9: ratio of KD values versus acetylated derivative 9
T1 construct: The GST-SH3 fusion proteins, Fyn (85-139) and Lck (54-120); purchased Santa Cruz Biotechnology
Protocol: Determination of Kd Values. […] Therefore, the KD values for the SH3 complexes of these species were determined via equilibrium dialysis. All samples were prepared in buffer containing TBS and 1 mM DTT at pH 7.5. Slide-A-Lyzer dialysis slide cassette (0.1-0.5 mL capacity) was employed and contained 30 nM or 500 nM Fyn SH3-GST fusion proteins. The cassettes (400 μL final volume) were placed in a beaker containing a volume of buffer solution (TBS and 1 mM DTT at pH 7.5) that was at least 400-fold greater than that of the sample volume in the dialysis cassette. As a consequence, concentrations of non-SH3-bound peptide were held constant in the dialysis slide cassette over the course of the experiment. Equilibrium dialysis experiments were performed over a period of at least 16 hr and maintained at 4°C. Differences in the fluorescence between the solution in the slide cassette and that in the beaker were measured. The excitation wavelength employed for the peptides were 328 nm. Emission was monitored at 378 nm. The Kd values were calculated from the following equation for fluorescent peptides 8a, 11a, 14 and 7, where [E]t=total enzyme concentration; [E·L]=enzyme-peptide complex; [L]=free peptide concentration.
For non-fluorescent peptide 9, the following equation was used for the determination of Kd′:
Where Kd=the dissociation constant of competition fluorescent peptide, [L′]=total lion-fluorescent peptide concentration, [L]=total competitive fluorescent peptide concentration, [E]t=total SH3 domain concentration; [E·L]=enzyme-peptide (fluorescent competitive peptide) complex concentration.

[2] = target: T2, Fyn SH3-GST fusion protein (Homo sapiens, UniProt P06241); assay: Competition ELISA against microwell-bound biotinylated peptoid 6; details: competition with biotinylated peptoid 6, read-out: IC50 (relative affinity) in ELISA assay
T2 construct: The GST-SH3 fusion proteins, Fyn (85-139) and Lck (54-120); purchased Santa Cruz Biotechnology
Protocol: We employed Arg-Ala-Leu-Pro-Pro-Leu-Pro as the starting point for Fyn SH3 ligand optimization, a sequence that is consistent with most known SH3 domain-binding elements. We initially introduced diversity elements on the N-terminus of this peptide to furnish Library I (FIG. 2). The 720 individual members of this library were subsequently assessed for SH3 binding potency via an ELISA-based screen. The latter was performed in parallel using streptavidin-coated 96 well plates. A biotinylated-peptide SH3-directed ligand was appended to the individual wells and a GST-SH3 domain fusion protein was subsequently introduced. Competition between members of the library and the microwell-bound biotinylated peptide ligand determined the extent to which the GST-SH3 protein was retained by the individual wells after washing. The latter was quantified using an anti-GST-peroxidase fusion construct. The assay is dependent upon a strong binding interaction between the GST-SH3 domain and the biotinylated peptide ligand associated with the streptavidin-coated well. […]
Screening of the Peptide/Nonpeptide Conjugate Library. […] 100 μL of 1M sulfuric acid solution was introduced to stop the peroxidase reaction and absorbance was measured at 450 nm with a plate reader. […]

Lck SH3 domain = target: T3, Lck SH3 domain (Homo sapiens, UniProt P06239); assay: Determination of Kd values by equilibrium dialysis (fluorescence), Lck SH3 domain; details: read-out: Dissociation constant (KD), Lck
T3 construct: The GST-SH3 fusion proteins, Fyn (85-139) and Lck (54-120); GST; purchased Santa Cruz Biotechnology

Yes SH3 domain = Yes SH3 domain (Homo sapiens, UniProt P07947); assay: Determination of Kd values by equilibrium dialysis (fluorescence), Yes SH3 domain; details: read-out: Dissociation constant (KD), Yes
Src SH3 domain = Src SH3 domain (Homo sapiens, UniProt P12931); assay: Determination of Kd values by equilibrium dialysis (fluorescence), Src SH3 domain; details: read-out: Dissociation constant (KD), Src
Hck SH3 domain = target: T4, Hck SH3 domain (Homo sapiens, UniProt P08631); assay: Determination of Kd values by equilibrium dialysis (fluorescence), Hck SH3 domain; details: read-out: Dissociation constant (KD), Hck
T4 construct: particularly with respect to the SH3 domains from Lck and Hck

[3] = equilibrium dialysis, 4°C, pH 7.5, read-out: Dissociation constant (KD), Fyn

T4 sequence (P08631 78-138 limits assumed): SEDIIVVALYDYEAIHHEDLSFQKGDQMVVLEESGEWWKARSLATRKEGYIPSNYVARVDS
Chain of Yes SH3 domain (P07947 91-152 limits assumed): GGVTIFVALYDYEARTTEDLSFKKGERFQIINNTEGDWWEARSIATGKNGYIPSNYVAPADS
T3 sequence (P06239 54-120): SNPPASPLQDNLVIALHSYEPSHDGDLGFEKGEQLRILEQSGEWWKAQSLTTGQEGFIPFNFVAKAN
T1 sequence (P06241 85-139): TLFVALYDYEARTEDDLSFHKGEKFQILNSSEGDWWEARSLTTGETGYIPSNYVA
T2 sequence (P06241 85-139): as above

Structure (SMILES)	Kd ([1]; values in nM, read-out: KD for the Fyn SH3 domain) [nM]	Selectivity among Src family SH3 domains (in words) [1]	IC50 [2] [nM]	Kd (Lck SH3 domain) [nM]	Kd (Yes SH3 domain) [nM]	Kd (Src SH3 domain) [nM]	Kd (Hck SH3 domain) [nM]	Kd [1, 3] [nM]	Enhancement in Fyn SH3 affinity relative to parent peptide 9 [1] [fold]	Selective affinity for Fyn versus SH3 domains from other Src kinase family members ([1]; Fyn versus Lck, Src, Yes, Hck SH3 domains) [fold]
CC(C)C[C@H](NC(=O)[C@@H]1CCCN1C(=O)[C@@H]1CCCN1C(=O)[C@H](C)NC(=O)[C@H](Cc1ccc(O)cc1)NC(=O)CCCCCNC(=O)CCCCCNC(=S)Nc1ccc2c(c1)C(=O)OC21c2ccc(O)cc2Oc2cc(O)ccc21)C(=O)N(CC(=O)N1CCC[C@H]1C(=O)N[C@@H](CCCNC(=N)N)C(=O)N[C@@H](CC(N)=O)C(=O)N[C@@H](CCCNC(=N)N)C(=O)N1CCC[C@H]1C(=O)N[C@@H](CCCNC(=N)N)C(=O)N[C@@H](C)C(N)=O)[C@@H](C)c1ccccc1 [Ligand 7] ({FITC-Ahx-Ahx}-YAPPL[Nspe]PRNRPRA-NH2)	230 ± 30	little selectivity versus other members of the Src kinase family								
CC(C)C[C@H](NC(=O)[C@@H]1CCCN1C(=O)[C@@H]1CCCN1C(=O)[C@H](CC(C)C)NC(=O)[C@H](C)NC(=O)[C@H](CCCNC(=N)N)NC(=O)c1cccnc1O)C(=O)N1CCC[C@H]1C(N)=O [Ligand 8a] ({Nicotinoyl(2-OH)}-RALPPLP-NH2)		some selectivity in favor of Fyn	15000	5300 ± 400	2700 ± 300	2500 ± 200	5100 ± 700	1200 ± 200	~15	
CC(C)C[C@H](NC(=O)[C@@H]1CCCN1C(=O)[C@@H]1CCCN1C(=O)[C@H](CC(C)C)NC(=O)[C@H](C)NC(=O)[C@H](CCCNC(=N)N)NC(=O)c1cccnc1O)C(=O)N1CCC[C@H]1C(=O)N[C@@H](CNC(=O)c1cccc(O)c1O)C(N)=O [Ligand 11a] ({Nicotinoyl(2-OH)}-RALPPLP[Dap](Benzoyl(2,3-diOH))-NH2)		slight improvement in selectivity for the Fyn SH3 domain relative to Lck and Hck		590 ± 80	380 ± 140	370 ± 50	620 ± 70	110 ± 30	> 100	
CC(C)C[C@H](NC(=O)[C@@H]1CCCN1C(=O)[C@@H]1CCCN1C(=O)[C@H](CC(C)C)NC(=O)[C@H](CNC(=O)[C@H](O)c1ccccc1)NC(=O)[C@H](CCCNC(=N)N)NC(=O)c1cccnc1O)C(=O)N1CCC[C@H]1C(=O)N[C@@H](CNC(=O)c1cccc(O)c1O)C(N)=O [Ligand 14] ({Nicotinoyl(2-OH)}-R[Dap](X1)LPPLP[Dap](Benzoyl(2,3-diOH))-NH2)				270 ± 30	190 ± 20	230 ± 40	260 ± 30	25 ± 5		10
